Reference: ChEMBL document CHEMBL5316337, “Critical Role of Position 10 Residue in the Polymyxin Antimicrobial Activity” (J Med Chem, 2023)

Key:
Type in all cases: functional
Klebsiella pneumoniae [1] = experiment: Antibacterial activity against Carbapenem-resistant Klebsiella pneumoniae BM1 clinical isolates assessed as reduction in bacterial growth by broth microdilution method
Enterobacter cloacae [2] = experiment: Antibacterial activity against polymyxin-susceptible Enterobacter cloacae FADD1-EC001 clinical isolates assessed as reduction in bacterial growth by broth microdilution method
Klebsiella pneumoniae [3] = experiment: Antibacterial activity against Carbapenem-resistant Klebsiella pneumoniae FADD1-KP065 clinical isolates assessed as reduction in bacterial growth by broth microdilution method
Pseudomonas aeruginosa [4] = experiment: Antibacterial activity against polymyxin-susceptible Pseudomonas aeruginosa ATCC 27853 clinical isolates assessed as reduction in bacterial growth by broth microdilution method
Enterobacter cloacae [5] = experiment: Antibacterial activity against polymyxin-susceptible Enterobacter cloacae FADD1-EC003 clinical isolates assessed as reduction in bacterial growth by broth microdilution method
Acinetobacter baumannii [6] = experiment: Antibacterial activity against Carbapenem-resistant Acinetobacter baumannii FADD1-AB034 clinical isolates assessed as reduction in bacterial growth by broth microdilution method
Enterobacter cloacae [7] = experiment: Antibacterial activity against polymyxin-susceptible Enterobacter cloacae FADD1-EC006 clinical isolates assessed as reduction in bacterial growth by broth microdilution method
Pseudomonas aeruginosa [8] = experiment: Antibacterial activity against polymyxin-susceptible Pseudomonas aeruginosa FADD1-PA025 clinical isolates assessed as reduction in bacterial growth by broth microdilution method
Pseudomonas aeruginosa [9] = experiment: Antibacterial activity against polymyxin-susceptible Pseudomonas aeruginosa FADD1-PA038 clinical isolates assessed as reduction in bacterial growth by broth microdilution method
Klebsiella pneumoniae [10] = experiment: Antibacterial activity against polymyxin-susceptible Klebsiella pneumoniae ATCC 700721 clinical isolates assessed as reduction in bacterial growth by broth microdilution method
Acinetobacter baumannii [11] = experiment: Antibacterial activity against polymyxin-susceptible Acinetobacter baumannii ATCC 17978 clinical isolates assessed as reduction in bacterial growth by broth microdilution method
Klebsiella pneumoniae [12] = experiment: Antibacterial activity against Carbapenem-resistant Klebsiella pneumoniae FADD1-KP032 clinical isolates assessed as reduction in bacterial growth by broth microdilution method
Acinetobacter baumannii [13] = experiment: Antibacterial activity against polymyxin-susceptible Acinetobacter baumannii ATCC 19606 clinical isolates assessed as reduction in bacterial growth by broth microdilution method
Acinetobacter baumannii [14] = experiment: Antibacterial activity against Carbapenem-resistant Acinetobacter baumannii FADD1-AB030 clinical isolates assessed as reduction in bacterial growth by broth microdilution method
Klebsiella pneumoniae [15] = experiment: Antibacterial activity against Carbapenem-resistant Klebsiella pneumoniae FADD1-KP022 clinical isolates assessed as reduction in bacterial growth by broth microdilution method
Pseudomonas aeruginosa [16] = experiment: Antibacterial activity against Carbapenem-resistant Pseudomonas aeruginosa FADD1-PA001 clinical isolates assessed as reduction in bacterial growth by broth microdilution method
Pseudomonas aeruginosa [17] = experiment: Antibacterial activity against Carbapenem-resistant Pseudomonas aeruginosa FADD1-PA022 clinical isolates assessed as reduction in bacterial growth by broth microdilution method

Measured: MIC

CC[C@H](C)CCCCC(=O)N[C@@H](CCN)C(=O)N[C@H](C(=O)N[C@@H](CCN)C(=O)N[C@H]1CCNC(=O)[C@H](CCO)NC(=O)[C@H](CCN)NC(=O)[C@H](CCN)NC(=O)[C@H](CC(C)C)NC(=O)[C@@H](Cc2ccccc2)NC(=O)[C@H](CCN)NC1=O)[C@@H](C)O
> 32 µg/mL: Enterobacter cloacae [7] | Acinetobacter baumannii [13]
32 µg/mL: Acinetobacter baumannii [14] | Pseudomonas aeruginosa [16]
8 µg/mL: Enterobacter cloacae [2] | Pseudomonas aeruginosa [9]
4 µg/mL: Klebsiella pneumoniae [1] | Pseudomonas aeruginosa [4] | Acinetobacter baumannii [6]
0.5 µg/mL: Klebsiella pneumoniae [15] | Pseudomonas aeruginosa [17]
2 µg/mL: all other assays above

CC[C@H](C)CCCCC(=O)N[C@@H](CCN)C(=O)N[C@H](C(=O)N[C@@H](CCN)C(=O)N[C@H]1CCNC(=O)[C@H](CCCCN)NC(=O)[C@H](CCN)NC(=O)[C@H](CCN)NC(=O)[C@H](CC(C)C)NC(=O)[C@@H](Cc2ccccc2)NC(=O)[C@H](CCN)NC1=O)[C@@H](C)O
32 µg/mL: Enterobacter cloacae [2] | Enterobacter cloacae [7] | Klebsiella pneumoniae [12] | Acinetobacter baumannii [13] | Acinetobacter baumannii [14]
4 µg/mL: Klebsiella pneumoniae [3]
2 µg/mL: Klebsiella pneumoniae [15]
16 µg/mL: Enterobacter cloacae [5]
8 µg/mL: Acinetobacter baumannii [6] | Acinetobacter baumannii [11]
1 µg/mL: Pseudomonas aeruginosa [17]
> 32 µg/mL: all other assays above

CC[C@H](C)CCCCC(=O)N[C@@H](CCN)C(=O)N[C@H](C(=O)N[C@@H](CCN)C(=O)N[C@H]1CCNC(=O)[C@H](Cc2ccccc2)NC(=O)[C@H](CCN)NC(=O)[C@H](CCN)NC(=O)[C@H](CC(C)C)NC(=O)[C@@H](Cc2ccccc2)NC(=O)[C@H](CCN)NC1=O)[C@@H](C)O
4 µg/mL: Enterobacter cloacae [2] | Enterobacter cloacae [5] | Enterobacter cloacae [7] | Pseudomonas aeruginosa [9]
0.5 µg/mL: Acinetobacter baumannii [14]
2 µg/mL: Klebsiella pneumoniae [1] | Acinetobacter baumannii [6] | Pseudomonas aeruginosa [8] | Klebsiella pneumoniae [10] | Acinetobacter baumannii [11] | Acinetobacter baumannii [13]
1 µg/mL: all other assays above

CC[C@H](C)CCCCC(=O)N[C@@H](CCN)C(=O)N[C@H](C(=O)N[C@@H](CCN)C(=O)N[C@H]1CCNC(=O)[C@H](C(C)(C)O)NC(=O)[C@H](CCN)NC(=O)[C@H](CCN)NC(=O)[C@H](CC(C)C)NC(=O)[C@@H](Cc2ccccc2)NC(=O)[C@H](CCN)NC1=O)[C@@H](C)O
4 µg/mL: Enterobacter cloacae [5] | Klebsiella pneumoniae [10]
2 µg/mL: Pseudomonas aeruginosa [8] | Klebsiella pneumoniae [12] | Pseudomonas aeruginosa [16]
16 µg/mL: Enterobacter cloacae [2] | Enterobacter cloacae [7]
8 µg/mL: Acinetobacter baumannii [6] | Pseudomonas aeruginosa [9] | Acinetobacter baumannii [11] | Acinetobacter baumannii [13] | Acinetobacter baumannii [14]
1 µg/mL: all other assays above

CC[C@H](C)CCCCC(=O)N[C@@H](CCN)C(=O)N[C@H](C(=O)N[C@@H](CCN)C(=O)N[C@H]1CCNC(=O)[C@H](CCCNC(=N)N)NC(=O)[C@H](CCN)NC(=O)[C@H](CCN)NC(=O)[C@H](CC(C)C)NC(=O)[C@@H](Cc2ccccc2)NC(=O)[C@H](CCN)NC1=O)[C@@H](C)O
16 µg/mL: Enterobacter cloacae [5]
2 µg/mL: Klebsiella pneumoniae [15]
4 µg/mL: Klebsiella pneumoniae [3] | Pseudomonas aeruginosa [4] | Acinetobacter baumannii [6] | Acinetobacter baumannii [11]
8 µg/mL: Pseudomonas aeruginosa [8] | Acinetobacter baumannii [13] | Acinetobacter baumannii [14]
1 µg/mL: Pseudomonas aeruginosa [17]
> 32 µg/mL: Klebsiella pneumoniae [1] | Pseudomonas aeruginosa [9] | Pseudomonas aeruginosa [16]
32 µg/mL: all other assays above

CC[C@H](C)CCCCC(=O)N[C@@H](CCN)C(=O)N[C@H](C(=O)N[C@@H](CCN)C(=O)N[C@H]1CCNC(=O)[C@H](C(C)(C)C)NC(=O)[C@H](CCN)NC(=O)[C@H](CCN)NC(=O)[C@H](CC(C)C)NC(=O)[C@@H](Cc2ccccc2)NC(=O)[C@H](CCN)NC1=O)[C@@H](C)O
1 µg/mL: Klebsiella pneumoniae [15]
2 µg/mL: Pseudomonas aeruginosa [4] | Pseudomonas aeruginosa [8] | Klebsiella pneumoniae [12] | Pseudomonas aeruginosa [16] | Pseudomonas aeruginosa [17]
8 µg/mL: Klebsiella pneumoniae [1] | Enterobacter cloacae [2] | Enterobacter cloacae [7] | Klebsiella pneumoniae [10] | Acinetobacter baumannii [13]
4 µg/mL: all other assays above
